The target in one series is PCSK9 (Homo sapiens (Human), UniProt Q8NBP7). In words: In vitro screening experiment (AlphaLISA anti-PCSK9, PCSK9-Huh7 cells). Format: cell-based. Particulars: 20 h incubation, AlphaLISA reading. The method, then:
1) Preparation of 1× AlphaLISA test buffer solution:
2.5 ml of 10× AlphaLISA test buffer solution was added to 22.5 ml of Milli-Q water to produce the 1× AlphaLISA test buffer solution.
50 μL of 5 mg/mL Alpha LISA Anti-PCSK9 Acceptor beads and 50 μL of 500 nM Biotinylated Antibody Anti-PCSK9 were added to 9,900 μL of 1× AlphaLISA test buffer solution.
3) Preparation of 2× Streptavidin (SA) Donor beads (80 μg/mL):
200 μL of 5 mg/mL SA-Donor beads was added to 12,300 μL of 1× AlphaLISA test buffer solution.
3) 20 μL/pore mixture of 2.5× AlphaLISA Acceptor beads and Biotinylated Antibody Anti-PCSK9 was added, and incubated at 23° C. for 60 min.
4) 25 μL/pore 2× Streptavidin (SA) Donor beads were added; and incubated for 30 min at 23° C. (kept in dark place).
5) EnVision-Alpha Reader reading:
Date was analyzed with Prismsoftware (nonlinear regression (Sigmoidal dose-response-variable slope) Inhibition ratio %=100*(Sample reading−LC reading)/(HC reading−LC reading) Computational formula: […]
On the technique in general: In Alpha technology, singlet oxygen from a donor bead excites a nearby acceptor bead.

Series [1] is described as follows: Research of pharmacokinetic properties in SD rats (bioavailability). In kind it is in vivo. Particulars: male SD rats; 1 mg/kg intravenous injection, 5 mg/kg by gavage. The method, then: Research of Pharmacokinetic Properties in SD Rats
This example was intended to evaluate the PK properties of test compound, and calculate the bioavailability in male SD rats. Each test compound used six male SD rats, Six male SD rats were randomly divided into two groups. Three rats were respectively administrated with the dose of 1 mg/kg by intravenous injection; the whole blood was collected at 0.0833, 0.25, 0.5, 1, 2, 4, 6, 8 and 24 h after administration and plasma samples were prepared. The other three rats were respectively administrated with the dose of 5 mg/kg by gavage, the whole blood was collected at 0.25, 0.5, 1, 2, 4, 6, 8 and 24 h after administration, and plasma samples were prepared. the concentration of the test compound in the plasma was tested by LC/MS/MS method, and relevant PK parameters was calculated with Phoenix WinNonlin 6.2.1.
For the bioavailability data, see table 2.

Experimental findings from patent publication US10513514B2, “Piperidine compounds as PCSK9 inhibitors” (SHENZHEN SALUBRIS PHARM CO LTD, priority 2017, dated 2019) are described below.

SMILES strings stand for the structures.

In the case of `COc1cccnc1N(C(=O)c1ccc(C2=NOC(C)(C)C2=O)cc1)[C@@H]1CCCNC1` [WX009], the IC50 at PCSK9 is less than 10 µM.
At PCSK9, `Cc1cc(F)cnc1N(C(=O)c1ccc(C2=NOC(C)(C)C2=O)cc1)[C@@H]1CCCNC1` [WX008] showed an IC50 of less than 10 µM.
The same measure, in the same setting: to `Cc1cc(C2=NOC(C)(C)C2=O)ccc1C(=O)N(c1ncccc1C)[C@@H]1CCCNC1` [WX023] belongs less than 10 µM.
On the same count and under the same terms, to `CC1(C)ON=C(c2ccc(C(=O)N(c3ncccc3F)[C@@H]3CCCNC3)cc2)C1=O` [WX013] belongs less than 10 µM.
As for `Cc1cccnc1N(C(=O)c1ccc(C2=NOC(C)(C)C2=O)cc1)[C@@H]1CCCNC1` [WX002], the “F in rats (%)” value in series [1] turned out to be 68.0%. At PCSK9, this compound showed an IC50 of less than 10 µM.
Taken in the same sequence, the figures for `Cc1cccnc1N(C(=O)c1ccc(C2=NOC(C)(C)C2=O)cc1F)[C@@H]1CCCNC1` [WX027] were 58.8% and less than 10 µM.
With `Cc1cccnc1N(C(=O)c1ccc(C2=NOC(C)(C)C2O)cc1)[C@@H]1CCCNC1` (stereo partly drawn) [WX025], the IC50 against PCSK9 is less than 10 µM.
Regarding `CO/N=C1/C(c2ccc(C(=O)N(c3ncccc3C)[C@@H]3CCCNC3)cc2)=NOC1(C)C` [WX040], the “F in rats (%)” value in series [1] is 56.3%. Moreover, on PCSK9, the IC50 is less than 10 µM.
On to `Cc1cc(C(=O)N(c2ncccc2C)[C@@H]2CCCNC2)ccc1C1=NOC(C)(C)C1=O` [WX024], for which the IC50 against PCSK9 is less than 10 µM.
In turn, `Cc1ccnc(N(C(=O)c2ccc(C3=NOC(C)(C)C3=O)cc2)[C@@H]2CCCNC2)c1Cl` [WX015] had an IC50 against PCSK9 of less than 10 µM.
On the same count and under the same terms, to `Cc1cc(C(=O)N(c2ncccc2Cl)[C@@H]2CCCNC2)ccc1C1=NOC(C)(C)C1=O` [WX022] belongs less than 10 µM.
Consider `O=C(c1ccc(-n2nnc3cccnc32)cc1)N(c1ncccc1Cl)[C@@H]1CCCNC1` [PF-06446846, reference compound], for which the “F in rats (%)” value in series [1] came out at 20%.
In the case of `CC1(C)ON=C(c2ccc(C(=O)N(c3ncccc3Cl)[C@@H]3CCCNC3)cc2)C1=O` [WX001], the “F in rats (%)” value in series [1] was 83.9%. In addition, at PCSK9, the IC50 was less than 10 µM.
Consider `COCc1cccnc1N(C(=O)c1ccc(C2=NOC(C)(C)C2=O)cc1)[C@@H]1CCCNC1` [WX041], for which, on PCSK9, the IC50 was less than 10 µM.
As to `Cc1cc(C2=NOC(C)(C)C2=O)ccc1C(=O)N(c1ncccc1Cl)[C@@H]1CCCNC1` [WX021], the “F in rats (%)” value in series [1] was 37.7%. Further, the IC50 against PCSK9 is less than 10 µM.
`Cc1cnc(N(C(=O)c2ccc(C3=NOC(C)(C)C3=O)cc2)[C@@H]2CCCNC2)c(C)c1` [WX012] gave an IC50 against PCSK9 of less than 10 µM.
Still for that read-out and setting: for `Cc1cc(Cl)cnc1N(C(=O)c1ccc(C2=NOC(C)(C)C2=O)cc1)[C@@H]1CCCNC1` [WX011] the value was less than 10 µM; for `CC1(C)ON=C(c2ccc(C(=O)N(c3ncccc3-c3ccncc3)[C@@H]3CCCNC3)cc2)C1=O` [WX037], less than 10 µM.
For the compound `CC1(C)ON=C(c2ccc(C(=O)N(c3ncccc3-c3ccccc3)[C@@H]3CCCNC3)cc2)C1=O` [WX038], the IC50 against PCSK9 is less than 10 µM.
The same measure, in the same setting: for `Cc1cccnc1N(C(=O)c1ccc(C2=NOC(C)(C)/C2=N\O)cc1)[C@@H]1CCCNC1` [WX039] the value was less than 10 µM; for `CC1(C)ON=C(c2ccc(C(=O)N(c3ccccn3)[C@@H]3CCCNC3)cc2)C1=O` [WX006], less than 10 µM.
`CC1(C)ON=C(c2ccc(C(=O)N(c3nccc4c3COC4)[C@@H]3CCCNC3)cc2)C1=O` [WX026]: at PCSK9, the IC50 is less than 10 µM.

A word on the IC50: it is the point on the concentration scale where inhibition reaches its midpoint.
